EP2730586B1, “PROTEIN-P[…] OBTAINED FROM TISSUES OF HOOFED LIVESTOCK EMBRYOS, PROCESS FOR PREPARING SAME AND PHARMACEUTICAL COMPOSITION” (Aktsionernoe Obschestvo "Pharm-Sintez", priority 2011, dated 2012)

System: mice marrow cells
Method: The study objective was detection and quantitative estimate of cytogenetic (mutagenic) activity of pharmacologic substances in polychromatophil cells (PCC) of mammal marrow. The method is based on microscopic recording of cells with micronuclei.
The experiments were performed to 2 months old male and female F1 (CBAx C57BI6/J) cross-breed mice weighing 18-20 g. Each group included 6 animals. The animals were kept at 12 hours light pattern with free food and water access. […] Three sessions of experiments were carried out with corresponding controls: therapeutic dose was tested on male animals with a single introduction; subtoxic dose was tested on male animals with a single introduction; therapeutic dose was tested on male animals with a single introduction; subtoxic dose was tested on male animals and female with five-time introduction.
Seven animal groups were formed: four experimental groups and three corresponding reference groups. The substance in the amount of 0.1 mg/kg was introduced five times at 24 hours interval to males and females. All animals were sacrificed 6 hours upon the last introduction of the protein/polypeptide complex.
In two other experimental groups, the protein/polypeptide complex was introduced in single dosing to males in doses of 0.2 mg/kg and 0.5 mg/kg.
Normal saline solvent was used as a negative control. It was introduced intraperitoneally to male and female mice of two reference groups for the same period and in the same amount as to the experimental animals.
Marrow cell preparations for micronuclei count were made by a standard method in compliance with guidelines [formula] […] The animals were sacrificed through cervical dislocation 6 hours after the last introduction. Both thigh bones were detached and muscles were removed from them. In order to wash out the marrow, fetal calf serum was used (produced by NPP PanEko). The marrow from both thigh bones was washed out into a microtube using a syringe. […] 2,000 polychromatophil cells from each animal were analyzed in encoded preparations.

## O=P1(N(CCCl)CCCl)NCCCO1 (stereo not drawn) [Cyclophosphamide, cyclophosphamide]
20 mg/kg, compared to control P<0.005
  polychromatophilic to normochromatic erythrocytes ratio: shift to the latter
Male mice, 20 mg/kg intraperitoneally, versus reference, P<0.001
  increased frequency of micronucleus cells: 19.6 times
Male mice, 20 mg/kg intraperitoneally, 3.16 % in reference
  frequency of micronucleus cells: 62.1%
